Test results reported in PMC8698070, “The Zoonotic Helminth Parasite Fasciola hepatica: Virulence-Associated Cathepsin B and Cathepsin L Cysteine Peptidases Secreted by Infective Newly Excysted Juveniles (NEJ)” (Animals : an Open Access Journal from MDPI, 2021).
Values joined by “and” are separate entries in the source; they are usually repeats but may differ in a detail not shown here. Identical values can stand only once. “Also recorded” adds a separate entry of the source. Like-named read-outs stand apart in the source and are kept apart here. Where a SMILES comes first, the peptide text is derived from it. The star is where a group is joined. Cbz = O=C(OCc1ccccc1)*

Legend:
NEJ = system: NEJ; set-up: method as in PMID 19401154; conditions: concentration of 6.25 μM; cited from earlier work
FhCB2 = FhCB2 (Fasciola hepatica, UniProt A5X493); assay: Inhibition of recombinant FhCB2, fluorogenic substrate assay (Z-Val-Ile-Arg-AMC); type: biochemical; conditions: for inhibition of enzymatic activity (inhibitor screen, Figure 5), in words: FhCB2, inhibitor 1000-15 nM
Description: (§1) Recombinant peptidases were assayed for enzymatic activity using a fluorogenic substrate assay. The reactions were carried out in 0.1 M C-P buffer (pH 7.0) with 1 mM DTT in a final volume of 200 μL, in a black 96-well plate. Each well contained activated enzyme (140 nM) and 20 μM fluorogenic substrate, which was added to start the reaction. All assays were run in triplicate at 37 °C for 1 h. Enzyme activity was monitored by rate of hydrolysis and subsequent release of the AMC group on the synthetic peptide substrates at an excitation wavelength of 370 nm and an emission wavelength of 460 nm, as relative fluorescence units (RFU), in a PolarStar Omega Spectrophotometer (BMG Labtech, Aylesbury, UK). All data were plotted and analysed using MARS Data Analysis Software (BMG Labtech, UK) and GraphPad Prism version 5.
(§2) Commercially available inhibitors of cathepsin B (Ca074 and Ca074-OMe), cathepsin L (L, L1, LII, LIII and LIV), cathepsin K (KI, KII and KIII) and cathepsin S were purchased from Merck Millipore (Cork, Ireland; Supplementary Figure S2). The broad-spectrum papain peptidase inhibitor Z-Phe-Ala-FMK was purchased from Enzo Life Sciences (Exeter, UK). These were used to determine and compare the inhibition constant (Ki) against the recombinant FhCBs and FhCL3. All the assays were carried out in 0.1 M C-P buffer with 1 mM DTT and 0.01% Brij® L23, at the pH corresponding to the optimum for each enzyme in a total 200 µL reaction volume. The peptidases (140 nM) were pre-incubated with the inhibitor (1000-15 nM) at room temperature, for 30 min, before starting the reaction by the addition of the substrate that was optimal for each enzyme (FhCB1, Z-Phe-Arg-AMC; FhCB2 and FhCB3, Z-Val-Ile-Arg-AMC; FhCL3, Z-Gly-Pro-Arg-AMC). Substrate concentrations were equal to KM (shown in Table 1) and the apparent inhibition constant (Ki^app) values were calculated with GraphPad Prism 5, using the Morrison equation for tight binding inhibition (Equation (3)). For competitive inhibitors, such as those used in this study, Ki^app was fitted to a second equation (Equation (4)) from which Ki can be determined. (3) vi/vo=1−([E])+[I]+Kiapp)−([E]+[I]+Kiapp)^2−4[E][I] /2[E] (4) Kiapp=Ki(1+[S]/KM)

FhCB1 = FhCB1 (Fasciola hepatica, UniProt Q8I7B2); assay: Inhibition of recombinant FhCB1, fluorogenic substrate assay (Z-Phe-Arg-AMC); type: biochemical; conditions: for inhibition of enzymatic activity (inhibitor screen, Figure 5), in words: FhCB1, inhibitor 1000-15 nM; for Ki: read-out: inhibition constant Ki
Description: as §1, §2

FhCB3 = FhCB3 (Fasciola hepatica, UniProt A7UNB2); assay: Inhibition of recombinant FhCB3, fluorogenic substrate assay (Z-Val-Ile-Arg-AMC); type: biochemical; conditions: for inhibition of enzymatic activity (inhibitor screen, Figure 5), in words: FhCB3, inhibitor 1000-15 nM
Description: as §1, §2

human cathepsin B (HsCB) = molecular target: T1, human cathepsin B (HsCB) (Homo sapiens, UniProt P07858); assay: Inhibitor screen against human cathepsin B control; type: biochemical
T1 construct: purchased Sigma-Aldrich; host or cells: human embryonic kidney cells
From the text: (§3) The Schistosoma mansoni cathepsin B1 (SmCB1) was also produced in our laboratory using P. pastoris as described above. The human cathepsin B (HsCB) and cathepsin L1 (HsCL1) were produced in human embryonic kidney cells (Sigma-Aldrich).
as §2, with “All the assays were carried out in 0.1 M C-P buffer with 1 mM DTT and 0.01% Brij® L23, at the pH corresponding to the optimum for each enzyme in a total 200 µL reaction volume. The peptidases (140 nM) were pre-incubated with the inhibitor (1000-15 nM) at room temperature, for 30 min, before starting the reaction by the addition of the substrate that was optimal for each enzyme (FhCB1, Z-Phe-Arg-AMC; FhCB2 and FhCB3, Z-Val-Ile-Arg-AMC; FhCL3, Z-Gly-Pro-Arg-AMC).” left out
The broad-range cysteine peptidase inhibitor Z-Phe-Ala-FMK was also included (Figure 5).
Figure 5 Profile of inhibition of FhCB1, FhCB2, FhCB3 and FhCL3. Commercially available inhibitors of cathepsin B (Ca074 and Ca07a-OMe), cathepsin L (L, L1, LII, LIII and LIV), cathepsin K (KI, KII and KIII), cathepsin S and the broad-spectrum papain peptidase inhibitor Z-Phe-Ala-FMK (A–L) were used to determine and compare the inhibition constant against recombinants FhCB1, FhCB2, FhCB3, FhCL3, HsCB and HsCL1. […] Error bars indicate standard deviation of three replicates.

FhCL3 = FhCL3 (Fasciola hepatica, UniProt A0A879R2T5); assay: Inhibition of recombinant FhCL3, fluorogenic substrate assay (Z-Gly-Pro-Arg-AMC); type: biochemical; conditions: for inhibition of enzymatic activity (inhibitor screen, Figure 5), in words: FhCL3, inhibitor 1000-15 nM
Description: as §1, §2

[1] = system: F. hepatica metacercariae; set-up: method as in PMID 19443417; conditions: final concentration of 1 mM; cited from earlier work
[2] = system: F. hepatica metacercariae; assay: Excystment of F. hepatica metacercariae in vitro; type: cell-based, Fasciola hepatica; conditions: 100 μM inhibitor, 3 h, 37 °C, 50 metacercariae per well; vs DMSO control
Description: F. hepatica metacercariae (Italian isolate; Ridgeway Research, Saint Briavels, UK) were prepared for excystment as previously described by Robinson et al.. To verify the effect of the cathepsin peptidase inhibitors on the ability of the metacercariae to excyst, 50 metacercariae per well were placed into a 24-well plate and 1 mL of excystment medium (0.6% sodium bicarbonate, 0.45% sodium chloride, 0.4% sodium tauroglycocholate, 0.025 N HCl and 0.4% L-cysteine) supplemented with 100 μM of the inhibitor was added to the well. As controls, we used PBS and dimethylsulfoxide (DMSO, 1:100; Sigma-Aldrich) alone. The plate was then incubated at 37 °C with 5% CO2, for 3 h to allow metacercarial excystment. Using a light microscope (25× magnification), the number of excysted NEJ was determined.

human cathepsins S = molecular target: human cathepsins S; set-up: method as in PMID 10964677; conditions: human cathepsin S; cited from earlier work
human cathepsins B = molecular target: human cathepsins B; set-up: method as in PMID 10964677; conditions: human cathepsin B; cited from earlier work
F. hepatica NEJ = assay: Viability of NEJ in culture; type: cell-based, Fasciola hepatica; conditions: 100 μM inhibitor, 24 h culture, compared to the DMSO group
Description: NEJ were washed three times in a culturing medium (RPMI-1640 medium supplemented with 30 mM HEPES, 0.1% glucose, 10% foetal bovine serum and 50 μg/mL of gentamicin) and their viability assessed by culturing the parasites in 1 mL of culture medium containing 100 μM of the inhibitor at 5% CO2 at 37 °C for 24 h. After incubation, the number of moribund/dead parasites were counted using a light microscope (25× magnification). The criteria used to assess the NEJ viability were loss of motility and peristaltic movement and any obvious damage to the tegument or internal structures, as previously standardized by. The experiments were performed in triplicate. The average of the replicate experimental data was subjected to a two-way ANOVA comparing the values obtained with each inhibitor against the mean of the DMSO control group, with minimum 95% confidence intervals. All the statistical analyses were performed using GraphPad Prism 5.

cathepsin L1 (HsCL1) = molecular target: T2, cathepsin L1 (HsCL1) (Homo sapiens, UniProt P07711); assay: Inhibitor screen against human cathepsin L1 control; type: biochemical
T2 construct: purchased Sigma-Aldrich; host or cells: human embryonic kidney cells
From the text: as §3, §2
A panel of 12 commercially available cysteine peptidase inhibitors that preferentially target mammalian cathepsin B (Ca074 and Ca074-OMe), cathepsin L (L, L1, LII, LIII and LIV) cathepsin S (S) and cathepsin K (KI, KII and KIII) were screened against the FhCBs, FhCL3 and, as controls, HsCB and HsCL1. The broad-range cysteine peptidase inhibitor Z-Phe-Ala-FMK was also included (Figure 5).
Figure 5 Profile of inhibition of FhCB1, FhCB2, FhCB3 and FhCL3. Commercially available inhibitors of cathepsin B (Ca074 and Ca07a-OMe), cathepsin L (L, L1, LII, LIII and LIV), cathepsin K (KI, KII and KIII), cathepsin S and the broad-spectrum papain peptidase inhibitor Z-Phe-Ala-FMK (A–L) were used to determine and compare the inhibition constant against recombinants FhCB1, FhCB2, FhCB3, FhCL3, HsCB and HsCL1. Activity is represented as the percentage of enzymatic activity observed by hydrolysis of a fluorogenic quenched peptide substrate following a pre-incubation with inhibitor in relation to the activity of the enzyme alone. Error bars indicate standard deviation of three replicates.

[3] = recombinant FhCB1 140 nM, 30 min pre-incubation, substrate Z-Phe-Arg-AMC at KM, optimum pH, ± SEM
[4] = inhibition constant Ki, recombinant FhCL3 140 nM, 30 min pre-incubation, substrate Z-Gly-Pro-Arg-AMC at KM, optimum pH, ± SEM

Sequence of FhCL3 (A0A879R2T5 entry or part of it): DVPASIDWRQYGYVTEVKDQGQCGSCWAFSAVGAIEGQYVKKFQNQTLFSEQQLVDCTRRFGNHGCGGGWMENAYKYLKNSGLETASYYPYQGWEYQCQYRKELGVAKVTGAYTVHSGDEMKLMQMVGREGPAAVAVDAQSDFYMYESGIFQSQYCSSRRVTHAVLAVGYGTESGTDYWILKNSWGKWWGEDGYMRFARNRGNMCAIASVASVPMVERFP
Sequence of FhCB1 (Q8I7B2 entry or part of it): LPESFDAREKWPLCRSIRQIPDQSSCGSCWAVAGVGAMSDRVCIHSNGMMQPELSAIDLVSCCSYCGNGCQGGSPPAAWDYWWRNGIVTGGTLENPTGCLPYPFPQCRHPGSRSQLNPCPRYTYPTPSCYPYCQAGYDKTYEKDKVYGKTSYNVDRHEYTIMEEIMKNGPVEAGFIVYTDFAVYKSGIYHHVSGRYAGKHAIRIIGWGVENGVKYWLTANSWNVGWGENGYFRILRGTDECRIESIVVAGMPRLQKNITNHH
Sequence of FhCB3 (A7UNB2 entry or part of it): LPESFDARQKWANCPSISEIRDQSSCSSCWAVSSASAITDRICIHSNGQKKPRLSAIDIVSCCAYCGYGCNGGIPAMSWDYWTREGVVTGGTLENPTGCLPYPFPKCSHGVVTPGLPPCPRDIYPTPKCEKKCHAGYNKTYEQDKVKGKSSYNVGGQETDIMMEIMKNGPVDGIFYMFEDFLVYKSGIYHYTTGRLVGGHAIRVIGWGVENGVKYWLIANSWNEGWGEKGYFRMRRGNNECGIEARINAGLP
Sequence of FhCB2 (A5X493 entry or part of it): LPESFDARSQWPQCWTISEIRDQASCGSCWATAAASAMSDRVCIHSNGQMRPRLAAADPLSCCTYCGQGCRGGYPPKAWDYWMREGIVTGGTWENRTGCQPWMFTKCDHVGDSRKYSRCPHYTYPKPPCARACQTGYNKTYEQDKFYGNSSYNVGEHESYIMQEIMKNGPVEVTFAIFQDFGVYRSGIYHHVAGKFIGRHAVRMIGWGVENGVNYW
T2 sequence (P07711 114-333): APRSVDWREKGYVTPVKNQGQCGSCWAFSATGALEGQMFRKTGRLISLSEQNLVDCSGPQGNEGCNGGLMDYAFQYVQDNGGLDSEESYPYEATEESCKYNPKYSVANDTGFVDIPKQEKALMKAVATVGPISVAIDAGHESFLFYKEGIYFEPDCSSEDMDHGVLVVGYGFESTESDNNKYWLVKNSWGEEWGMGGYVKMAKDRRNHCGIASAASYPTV

## CCCNC(=O)[C@H]1O[C@@H]1C(=O)N[C@H](C(=O)N1CCC[C@H]1C(=O)OC)[C@@H](C)CC [Ca074ME]
NEJ
  effect on cultured NEJ: sub-lethal effect
FhCB2; listed as Ca074-OMe
  inhibition of enzymatic activity (inhibitor screen, Figure 5), in words: poor inhibitors; also recorded: very poor inhibitors
FhCB2; recombinant FhCB2 140 nM, 30 min pre-incubation, substrate Z-Val-Ile-Arg-AMC at KM, optimum pH, ± SEM
  inhibition constant Ki: poor inhibition
FhCB1; listed as Ca074-OMe
  inhibition of enzymatic activity (inhibitor screen, Figure 5), in words: poor inhibitors; also recorded: very poor inhibitors
FhCB1; [3]
  inhibition constant Ki: poor inhibition
  Ki: 5500 ± 1190 nM
FhCB3
  Ki: 785 ± 130 nM
FhCB3; listed as Ca074-OMe
  inhibition of enzymatic activity (inhibitor screen, Figure 5), in words: poor inhibitors; also recorded: very poor inhibitors
FhCB3; recombinant FhCB3 140 nM, 30 min pre-incubation, substrate Z-Val-Ile-Arg-AMC at KM, optimum pH, ± SEM
  inhibition constant Ki: poor inhibition
Human cathepsin B (HsCB)
  inhibition of enzymatic activity (inhibitor screen, Figure 5), in words: selective for HsCB compared to HsCL1
FhCL3
  inhibition of enzymatic activity (inhibitor screen, Figure 5), in words: poor inhibitors
FhCL3; [4]
  Ki: 249 ± 35.5 nM
FhCL3; recombinant FhCL3 140 nM, 30 min pre-incubation, substrate Z-Gly-Pro-Arg-AMC at KM, optimum pH, ± SEM
  inhibition constant Ki: poor inhibition

## C[C@H](NC(=O)[C@H](Cc1ccccc1)NC(=O)OCc1ccccc1)C(=O)CF [Z-Phe-Ala-FMK]
[1]
  effect on metacercariae excystment: completely prevented
[2]
  reduction of metacercariae excystment: more than 50%
FhCB1; [3]
  Ki: < 15 nM and 3 nM
FhCB3
  Ki: 246 ± 55.7 nM
FhCL3; [4]
  Ki: 15 ± 5.95 nM

## CC(C)C[C@H](NC(=O)[C@H](Cc1ccccc1)NC(=O)OCc1ccccc1)C(=O)C=O [S]
FhCB1; [3]
  Ki: 14 ± 2.42 nM
FhCB3
  Ki: 696 ± 94.8 nM
Human cathepsins S
  Ki: 0.185 nM
FhCL3; [4]
  Ki: 35 ± 2.4 nM
Human cathepsins B
  Ki: 76 nM
F. hepatica NEJ
  reduction of NEJ viability (survival): ~ 55%

## O=CC(Cc1ccc(O)cc1)NC(=O)C(Cc1ccccc1)NC(=O)OCc1ccccc1 (stereo not drawn) [LII] (Cbz-Phe-Tyr-aldehyde; configuration not given here)
Cathepsin L1 (HsCL1)
  inhibition of enzymatic activity (inhibitor screen, Figure 5), in words: specificity for HsCL1 over HsCBs; also recorded: inhibited
FhCB2
  inhibition of enzymatic activity (inhibitor screen, Figure 5), in words: most effective at reducing the enzymatic activity
FhCB2; recombinant FhCB2 140 nM, 30 min pre-incubation, substrate Z-Val-Ile-Arg-AMC at KM, optimum pH, ± SEM, read-out: inhibition constant Ki
  Ki: 1840 ± 77 nM
FhCB1
  inhibition of enzymatic activity (inhibitor screen, Figure 5), in words: most effective at reducing the enzymatic activity
FhCB3
  inhibition of enzymatic activity (inhibitor screen, Figure 5), in words: most effective at reducing the enzymatic activity
FhCB3; recombinant FhCB3 140 nM, 30 min pre-incubation, substrate Z-Val-Ile-Arg-AMC at KM, optimum pH, ± SEM, read-out: inhibition constant Ki
  Ki: 211 ± 34.8 nM
Human cathepsin B (HsCB)
  inhibition of enzymatic activity (inhibitor screen, Figure 5), in words: inhibited
FhCL3
  inhibition of enzymatic activity (inhibitor screen, Figure 5), in words: most effective at reducing the enzymatic activity
FhCL3; recombinant FhCL3 140 nM, 30 min pre-incubation, substrate Z-Gly-Pro-Arg-AMC at KM, optimum pH, ± SEM, read-out: inhibition constant Ki
  Ki: 8 ± 0.6 nM
